Where no end group is shown, it is not given here.
Legend:
[1] = test system: B. subtilis 63501; format: cell-based, Bacillus subtilis; conditions: 63501, 24 h
Method in brief: (§1)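 Peptides, diluted in 0.2% BSA, were mixed with mid-logarithmic cells in MHB (0.5–1 × 10^6 CFU/mL) and incubated for 24 h at 37 °C. Absorbance at 492 nm defined MIC as 95% growth inhibition; subculture onto agar overnight gave MBC as >99.9% kill.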

[2] = test system: MRSA 43300; format: cell-based, methicillin-resistant S. aureus; conditions: 43300, 24 h
Method in brief: as §1

[3] = test system: S. aureus 29213; format: cell-based, Staphylococcus aureus; conditions: 29213, 24 h
Method in brief: as §1

[4] = test system: S. aureus 25923; format: cell-based, Staphylococcus aureus; conditions: 25923, 24 h
Method in brief: as §1

[5] = test system: all of the tested bacterial strains; assay: Geometric mean of MICs, all tested bacterial strains; format: cell-based; conditions: for GM, All: geometric mean of MICs across all tested strains
Method in brief: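 Mid-log bacteria at 0.5–1 × 10^6 CFU mL^–1 in MHB with peptides serially diluted in 0.2% BSA, 24 h at 37°C. MIC is the lowest concentration giving 95% growth inhibition by A492. MBC is the lowest giving >99.9% kill on agar subculture, and the GM is taken over all strains.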

[6] = test system: Gram-negative bacteria; conditions: geometric mean of MBCs, 9 Gram-negative strains (Table 2)
[7] = test system: Gram-positive bacteria; conditions: geometric mean of MBCs, 7 Gram-positive strains (Table 2)
[8] = test system: Gram-positive bacteria; conditions: for GM MIC: geometric mean of MICs, 7 Gram-positive strains (Table 2); for TI, Gram-positive bacteria: therapeutic index TI = MHC/GM MIC
Method in brief: (§2)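 Broth microdilution adapted from NCCLS: mid-log bacteria diluted in MHB to 0.5–1 × 10^6 CFU mL^–1, mixed with peptides serially diluted in 0.2% BSA. After 24 h at 37°C, MIC taken as the lowest concentration inhibiting 95% of growth by absorbance at 492 nm. Assays repeated more than 3 times.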

[9] = test system: Gram-negative bacteria; conditions: for GM MIC: geometric mean of MICs, 9 Gram-negative strains (Table 2); for TI, Gram-negative bacteria: therapeutic index TI = MHC/GM MIC
Method in brief: as §2

[10] = test system: S. pullorum 7913; format: cell-based, Salmonella pullorum; conditions: 7913, 24 h
Method in brief: as §1

[11] = test system: S. aureus 29213; assay: Salt sensitivity assay (MIC); format: cell-based, Staphylococcus aureus; conditions: for MIC, FeCl3: 4 μM FeCl3; for MIC, NH4Cl: 6 μM NH4Cl; for MIC, ZnCl2: 8 μM ZnCl2; for MIC, MgCl2: 1 mM MgCl2; for MIC, CaCl2: 2 mM CaCl2; for MIC, KCl: 4.5 mM KCl; for MIC, NaCl: 150 mM NaCl
Method in brief: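 MICs determined by broth microdilution in MHB with 0.5–1 × 10^6 CFU/mL, peptides serially diluted in 0.2% BSA, 24 h at 37°C. Medium supplemented with physiological salts (150 mM NaCl, 4.5 mM KCl, 6 μM NH4Cl, 8 μM ZnCl2, 1 mM MgCl2, 2mM CaCl2, 4 μM FeCl3). MIC = lowest concentration inhibiting 95% growth (A492).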

[12] = test system: Listeria monocytogenes CGMCC 1.1075; format: cell-based; conditions: CGMCC 1.1075, 24 h
Method in brief: as §1

[13] = test system: E. coli ATCC 25922; assay: Salt sensitivity assay (MIC); format: cell-based, Escherichia coli; conditions: for MIC, FeCl3: 4 μM FeCl3; for MIC, NH4Cl: 6 μM NH4Cl; for MIC, ZnCl2: 8 μM ZnCl2; for MIC, MgCl2: 1 mM MgCl2; for MIC, CaCl2: 2 mM CaCl2; for MIC, KCl: 4.5 mM KCl; for MIC, NaCl: 150 mM NaCl; for MIC, Control: no added salt, three independent assays
Method in brief: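 The salt sensitivity of peptides was tested against E. coli ATCC 25922 using a modified NCCLS broth microdilution MIC method. Mid-log bacteria were diluted in MHB to 0.5–1 × 10^6 CFU mL^–1 and mixed in equal volumes with peptides serially diluted in 0.2% BSA in 96-well plates. Physiological salt was added where specified, and the assay was done three independent times.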

[14] = test system: E. coli K99; conditions: for MIC: MHB, 24 h 37°C, 95% growth inhibition
Method: (§3) The antimicrobial activities of the peptides were measured using a method adapted from the National Committee for Clinical Laboratory Standards (NCCLS) with some modifications ([Chou et al., 2016]). The specific procedure for these assays has been previously described. In brief, the bacterial cells were grown to a mid-logarithmic phase and diluted in MHB to an ultimate concentration of 0.5–1 × 10^6 CFU mL^–1. Subsequently, the peptides were consecutively diluted in a 0.2% BSA solution and then added to a bacterial solution in a 96-well plate at identical volumes. After incubation for 24 h at 37°C, the MICs were determined to be the lowest peptide concentration that inhibited 95% of the bacterial growth by monitoring the absorbance at 492 nm using a microplate reader. Subsequently, 50 μL of each incubation mixture was further transferred to agar plates and incubated overnight. […] Every assay was reproduced more than 3 times.

[15] = test system: E. coli K88; conditions: for MIC: MHB, 24 h 37°C, 95% growth inhibition
Method: as §3

[16] = test system: S. epidermidis 12228; format: cell-based, Staphylococcus epidermidis; conditions: 12228, 24 h
Method in brief: as §1

[17] = test system: S. typhimurium 7731; format: cell-based, Salmonella typhimurium; conditions: 7731, 24 h
Method in brief: as §1

[18] = test system: S. typhimurium 14028; format: cell-based, Salmonella typhimurium; conditions: 14028, 24 h
Method in brief: as §1

[19] = test system: E. coli UB1005; format: cell-based, Escherichia coli; conditions: UB1005, 24 h
Method in brief: as §1

[20] = test system: E. coli 25922; format: cell-based, Escherichia coli; conditions: 25922, 24 h
Method in brief: as §1

[21] = test system: E. coli O78; format: cell-based, Escherichia coli; conditions: O78, 24 h
Method in brief: as §1

[22] = test system: E. faecalis 29212; format: cell-based, Enterococcus faecalis; conditions: 29212, 24 h
Method in brief: as §1

[23] = test system: P. aeruginosa 27853; format: cell-based, Pseudomonas aeruginosa; conditions: 27853, 24 h
Method in brief: as §1

[24] = value in brackets, >99.9% of cells killed

LLLRRRRLL-NH2 [L4]
MBC [1]: 16 µM | MIC [1]: 8 µM | MIC [2]: >64 µM | MIC [3]: >64 µM | MIC [4]: > 64 µM | GM, All [5]: 107.63 µM | TI, All ([5]; therapeutic index TI = MHC/GM MIC): 2.38 | GM MBC [6]: 128 µM | GM MBC [7]: 95.10 µM | GM MIC [8]: 86.14 µM | TI, Gram-positive bacteria [8]: 2.97 | GM, Gram-negative bacteria ([9]; geometric mean of MICs (Table 3)): 128.00 µM | GM MIC [9]: 128 µM | TI, Gram-negative bacteria [9]: 2.00 | MIC [10]: >64 µM | MIC, FeCl3 [11]: > 64 µM | MIC, NH4Cl [11]: > 64 µM | MIC, ZnCl2 [11]: > 64 µM | MIC, MgCl2 [11]: > 64 µM | MIC, CaCl2 [11]: > 64 µM | MIC, KCl [11]: > 64 µM | MIC, NaCl [11]: > 64 µM | MIC, Control ([11]; no added salt, three independent assays): > 64 µM | MIC [12]: >64 µM | MIC, FeCl3 [13]: > 64 µM | MIC, NH4Cl [13]: > 64 µM | MIC, ZnCl2 [13]: > 64 µM | MIC, MgCl2 [13]: > 64 µM | MIC, CaCl2 [13]: > 64 µM | MIC, KCl [13]: > 64 µM | MIC, NaCl [13]: > 64 µM | MIC, Control [13]: > 64 µM | MIC [14]: > 64 µM | MIC [15]: >64 µM | MIC [16]: > 64 µM | MIC [17]: > 64 µM | MIC [18]: > 64 µM | MIC [19]: >64 µM | MIC [20]: > 64 µM | MIC [21]: >64 µM | MIC [22]: > 64 µM | MIC [23]: > 64 µM

LLRLLRRRL-NH2 [L1]
MBC [1]: 4 µM | MIC [1]: 2 µM | MBC [2]: 32 µM | MIC [2]: 16 µM | MBC [3]: 32 µM | MIC [3]: 16 µM | MBC [4]: 64 µM | MIC [4]: 32 µM | GM, All [5]: 16.71 µM | GM MBC [6]: 25.40 µM | GM MBC [7]: 39.01 µM | GM MIC [8]: 21.53 µM | TI, Gram-positive bacteria [8]: 2.97 | GM MIC [9]: 13.72 µM | TI, Gram-negative bacteria [9]: 18.66 | MBC [10]: 16 µM | MIC [10]: 8 µM | MIC, FeCl3 [11]: > 64 µM | MIC, NH4Cl [11]: 64 µM | MIC, ZnCl2 [11]: 64 µM | MIC, MgCl2 [11]: 64 µM | MIC, CaCl2 [11]: > 64 µM | MIC, KCl [11]: 64 µM | MIC, NaCl [11]: > 64 µM | MIC [12]: > 64 µM | MIC, FeCl3 [13]: 4 µM | MIC, NH4Cl [13]: 4 µM | MIC, ZnCl2 [13]: 8 µM | MIC, MgCl2 [13]: 8 µM | MIC, CaCl2 [13]: 32 µM | MIC, KCl [13]: 16 µM | MIC, NaCl [13]: 64 µM | MIC, Control [13]: 8 µM | MIC [14]: 8 µM | MBC [14, 24]: 16 µM | MIC [15]: 8 µM | MBC [15, 24]: 16 µM | MBC [16]: 32 µM | MIC [16]: 16 µM | MBC [17]: 32 µM | MIC [17]: 16 µM | MBC [18]: 32 µM | MIC [18]: 16 µM | MBC [19]: 32 µM | MIC [19]: 16 µM | MBC [20]: 16 µM | MIC [20]: 8 µM | MBC [21]: 16 µM | MIC [21]: 8 µM | MBC [22]: 128 µM | MIC [22]: 64 µM | MIC [23]: > 64 µM
